Experimental data reported in PubChem BioAssay AID330 (DTP/NCI, 2004).
“And” between values parts separate entries of the source, which are not always exact repeats. Equal entries are not always repeated. Toxic doses and inconclusive results are not listed. The calls were made as follows: active = survival T/C of 150% or more; inactive = T/C below 125% in these data.

Tested on: P388 leukemia ip, CD2F1 mice, survival T/C
Assay: NCI In Vivo Anticancer Drug Screen. Data for tumor model P388 Leukemia (intraperitoneal) in CD2F1 (CDF1) mice
Conditions: endpoint: median survival time, higher = longer survival
Procedure, shortened: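 Mice carrying the transplanted tumor received test compound or vehicle. Survival was recorded in each group, and the value is the treated-group measurement divided by that of the vehicle-treated control group.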

[1] = dose: 50.0 mg/kg/injection, schedule: Q01DX009 (ip), vehicle: saline with Tween-80

Measured: T/C

COc1cc(C2=N/C(=C/c3cccs3)C(=O)O2)cc(OC)c1OC
inactive: dose: 6.25 mg/kg/injection, schedule: Q01DX009 (ip), vehicle: Klucel (hydroxypropylcellulose) (HPC) 98 % of control | dose: 12.5 mg/kg/injection, schedule: Q01DX009 (ip), vehicle: Klucel (hydroxypropylcellulose) (HPC) 108 % of control | dose: 25.0 mg/kg/injection, schedule: Q01DX009 (ip), vehicle: Klucel (hydroxypropylcellulose) (HPC) 106 % of control

COc1ccc(CCNc2ccc(NCCc3ccc(OC)c(OC)c3)c3c2C(=O)c2ccccc2C3=O)cc1OC
inactive: dose: 25.0 mg/kg/injection, schedule: Q01DX009 (ip), vehicle: other 88 % of control | dose: 50.0 mg/kg/injection, schedule: Q01DX009 (ip), vehicle: other 88 % of control | dose: 200.0 mg/kg/injection, schedule: Q01DX009 (ip), vehicle: other 101 % of control | dose: 400.0 mg/kg/injection, schedule: Q01DX009 (ip), vehicle: other 91 % of control

CC1=CC(O)C(O)C2(C)C1CC1OC(=O)C(OC(=O)CC(C)C)C3C(C)C(O)C4(O)OCC13C42 (centres undefined) (tested in a mixture with another compound)
inactive: dose: 125.0 micrograms/kg/injection, schedule: Q01DX009 (ip), vehicle: other 104 % of control | dose: 250.0 micrograms/kg/injection, schedule: Q01DX009 (ip), vehicle: other 102 % of control | dose: 500.0 micrograms/kg/injection, schedule: Q01DX009 (ip), vehicle: other 103 % of control | dose: 1000.0 micrograms/kg/injection, schedule: Q01DX009 (ip), vehicle: other 108 % of control

O=C(Nc1ccc(Cl)c(Cl)c1)OCc1cccnc1
inactive: dose: 50.0 mg/kg/injection, schedule: Q01DX009 (ip), vehicle: Klucel (hydroxypropylcellulose) (HPC) 95 % of control | dose: 100.0 mg/kg/injection, schedule: Q01DX009 (ip), vehicle: Klucel (hydroxypropylcellulose) (HPC) 97 % of control | dose: 200.0 mg/kg/injection, schedule: Q01DX009 (ip), vehicle: Klucel (hydroxypropylcellulose) (HPC) 95 % of control

OCCN(CCO)c1cc(/C=C/c2c3ccccc3cc3ccccc23)nc2ccccc12
inactive: [1] 89 % of control | dose: 100.0 mg/kg/injection, schedule: Q01DX009 (ip), vehicle: saline with Tween-80 93 % of control | dose: 200.0 mg/kg/injection, schedule: Q01DX009 (ip), vehicle: saline with Tween-80 92 % of control

S=C(Nc1ccc(I)cc1)SCc1ccc2c(c1)OCO2
inactive: dose: 50.0 mg/kg/injection, schedule: Q01DX009 (ip), vehicle: suspension in saline 110 % of control | dose: 100.0 mg/kg/injection, schedule: Q01DX009 (ip), vehicle: suspension in saline 104 % of control | dose: 200.0 mg/kg/injection, schedule: Q01DX009 (ip), vehicle: suspension in saline 101 % of control

CN=C(NC)c1ccc(NC(=O)/C=C/C(=O)Nc2ccc(C(=NC)NC)cc2)cc1
inactive: dose: 12.5 mg/kg/injection, schedule: Q01DX005 (ip), vehicle: saline with Tween-80 101 % of control | dose: 25.0 mg/kg/injection, schedule: Q01DX005 (ip), vehicle: saline with Tween-80 99 % of control | dose: 50.0 mg/kg/injection, schedule: Q01DX005 (ip), vehicle: saline with Tween-80 98 % of control and 103 % of control

CP1(=O)CCc2c1ccc1ccccc21 (centres undefined)
inactive: dose: 100.0 mg/kg/injection, schedule: Q04DX002 (ip), vehicle: saline 107 % of control | dose: 200.0 mg/kg/injection, schedule: Q04DX002 (ip), vehicle: saline 101 % of control

Nc1cccc(C(=O)O)c1O
inactive: dose: 50.0 mg/kg/injection, schedule: Q01DX009 (ip), vehicle: saline 100 % of control | dose: 100.0 mg/kg/injection, schedule: Q01DX009 (ip), vehicle: saline 106 % of control | dose: 200.0 mg/kg/injection, schedule: Q01DX009 (ip), vehicle: saline 104 % of control

C=C(C)C(=O)OC1CCC2Cc3occ(C)c3C(OC(=O)C(=C)C)C2(C)C1C (centres undefined)
inactive: dose: 20.0 mg/kg/injection, schedule: Q01DX009 (ip), vehicle: saline with Tween-80 93 % of control | dose: 40.0 mg/kg/injection, schedule: Q01DX009 (ip), vehicle: saline with Tween-80 102 % of control | dose: 80.0 mg/kg/injection, schedule: Q01DX009 (ip), vehicle: saline with Tween-80 93 % of control | dose: 160.0 mg/kg/injection, schedule: Q01DX009 (ip), vehicle: saline with Tween-80 93 % of control

Cn1c2c([N+](=O)[O-])cccc2c(=O)c2c(O)cc3c(c21)C=CC(C)(C)O3
inactive: dose: 100.0 mg/kg/injection, schedule: Q01DX001 (ip), vehicle: saline with Tween-80 108 % of control | dose: 200.0 mg/kg/injection, schedule: Q01DX001 (ip), vehicle: saline with Tween-80 110 % of control

Clc1ccc(C(c2ccc(Cl)cc2)C(Cl)(Cl)Cl)cc1
inactive: dose: 1.56 mg/kg/injection, schedule: Q01DX009 (ip), vehicle: saline with Tween-80 105 % of control | dose: 3.12 mg/kg/injection, schedule: Q01DX009 (ip), vehicle: saline with Tween-80 98 % of control | dose: 6.25 mg/kg/injection, schedule: Q01DX009 (ip), vehicle: saline with Tween-80 100 % of control | dose: 12.5 mg/kg/injection, schedule: Q01DX009 (ip), vehicle: saline with Tween-80 98 % of control | [1] 99 % of control
